Measurements from patent publication US20140066431A1, “Benzoxazepines as Inhibitors of PI3K/mTOR and Methods of Their Use and Manufacture” (Exelixis, Inc., priority 2010, published 2014).
Like-named read-outs stand apart in the source and are kept apart here.

Test system: MCF-7 cells (PI3Kα-E545K mutant)
Test: pAKT (T308) ELISA assay, MCF-7
Assay type: cell-based
Settings: Homo sapiens, MCF7
Procedure: MCF-7 cells (ATCC) cells were seeded at 24000 cells per well in 96-well plates (Corning, 3904) in DMEM (Cellgro) containing 10% FBS (Cellgro), 1% NEAA (Cellgro) and 1% penicillin-streptomycin (Cellgro). Cells were incubated at 37° C., 5% CO2 for 48 h, and the growth medium was replaced with serum-free DMEM or in medium containing 0.4% BSA. Serial dilutions of the test compound in 0.3% DMSO (vehicle) were added to the cells and incubated for 3 h. At the end of the incubation period, cells were stimulated for 10 minutes by the addition of L-IGF (Sigma, I-1271) at a final concentration of 100 ng/ml. Afterwards, media was discarded from cell plates and 110 μl/well of cold lysis buffer (see table below) were added. Cell plates were incubated on ice and then put on shaker in 4° C. cold room for 1 h. Two capture plates (Thermo Scientific, Reacti-bind plate, 15042) were prepared for each cell plate by pre-coating with capture Akt antibody from the two sandwich ELISA antibody pairs used (Cell Signaling Technology 7142 and 7144). The Akt capture antibodies were diluted 1:100 in PBS and […] of diluted capture antibody was added per well. […] After 1 minute incubation, chemiluminescence was read on a Wallac Victor2 1420 multilabel counter. IC50 values were determined based on the ratio of pAkt(T308) to total Akt1 signal for compound treated wells, normalized to the DMSO-treated control wells. […]

`Cc1cc(C(C)Nc2ccccc2)c2nc(N3CCOCC3)cc(=O)n2c1` (centres unmarked) [TGX-221, 7-methyl-2-(4-morpholinyl)-9-[1-(phenylamino)ethyl]-4H-pyrido[1,2-a]pyrimidin-4-one] gave an IC50 (IGF1 stimulation, Table 5, read-out: pAKT (T308) IC50 MCF-7 PI3Kα E545K IGF1) of 1.76 µM and an IC50 (PI3KαE545K, Table 6, read-out: Cellular pAKT (T308) IC50 MCF-7) greater than 30 µM.
